Reference: patent publication US20150140123A1, “Protein expression analyses for identifying genotoxic compounds” (Merck Patent GmbH, priority 2012, published 2015)
Where two headings read alike, the source gives them in different places.

Test system: HepG2 cells
Test: High content imaging cytotoxicity parameters: selected cell count per valid field (SCC) and CMFDA cytoplasm average intensity
Protocol: HepG2 cells (Order No. HB-8065, Lot. 58483209, ATCC, Manassas, USA) were cultured in DMEM/F12 with L-Glutamine and 15 mM Hepes supplemented with 10% (v/v) FBS, 1% (v/v) penicillin (10 kU/ml)/streptomycin (10 mg/ml) solution, 0.1% (v/v) gentamicin (50 mg/ml), and 1 mM sodium pyruvate at 37° C. and 5% CO2 in culture flasks. Depending on the experiment, an appropriate number of cells were seeded onto plates after detaching of the cells using trypsin and cells were cultured at 37° C. and 5% CO2 for 24 h prior to treatment. All experiments were performed three times with cells of passages 4-20.
Cells were seeded onto black Poly-D-Lysin coated 96-well-plates (BD Biocoat, Franklin Lakes, USA) (0.02×10^6 cells/well) and left 24 h for adherence and then treated with test compounds at a maximum concentration of 1 mM which is recommended by the ICH S2(R1) guideline (EMA, 2011). For each compound, nine concentrations were tested with 2-fold serial dilutions. DMSO 1% (v/v) served as vehicle control for the experiments. The treatment procedure was different for direct-genotoxic and pro-genotoxic compounds. The treatment for direct genotoxic compounds was ongoing and was repeated daily over 48 h. Pro-genotoxic compounds were incubated for 6 h together with metabolic activation system (to limit the cytotoxic effect of the S9-mixture). After this period, cells were washed with cell media followed by 18-repeated daily over 48 h. The metabolic activation system used consisted of the following components and concentrations: 8 mM MgCl2, 32.8 mM KCl, 12 mM NADPH, 124 mM phosphate buffer and 2500 pmol/ml cytochrome P450 (CYP) content in the pre-mixture corresponding to 2.4 mM MgCl2, 9.8 mM KCl, 3.6 mM NADPH, 37.2 mM phosphate buffer, and 750 pmol/ml CYP as final concentrations after dilution 1:3.33 with cell culture media.
After treatment, cells were rinsed with PBS (Gibco Invitrogen, Karlsruhe, Germany), and then stained with 10 μM CellTracker Green 5-Chloromethylfluorescein Diacetate (CMFDA) (Invitrogen, Karlsruhe, Germany) in cell culture media for 30 min. CMFDA is per se non-fluorescent and is hydrolyzed by esterase in viable cells to a fluorescent-dye. The reaction with thiol groups leads to a cell-impermeable fluorescent-dye-adduct. The esterase activity can be used as an indicator for viability of cells (Papadopoulos et al., 1994, J Immunol Methods 177, 101-11). Afterwards, cells were washed with PBS and fixed with 3.7% Formaldehyde (Sigma-Aldrich, Taufkirchen, Germany) in PBS for 20 min. After that, cells were washed with PBS and blocked and permeabilized with 2% donkey serum (Millipore, Schwalbach, Germany) and 0.25% Triton X-100 (Sigma-Aldrich, Taufkirchen, Germany) in PBS for 30 min. Primary antibodies were diluted in Blocking/Permeabilization solution to final concentrations of 4 μg/ml anti-p-Chk1 (Ser345) goat polyclonal antibody IgG (santa cruz, Santa Cruz, USA), 4 μg/ml anti-p-ATM (Ser1981) mouse monoclonal antibody IgG1K (Millipore, Schwalbach, Germany) and added to the cells. After incubation for 16-18 h, cells were washed with 0.05% Tween 20 (Calbiochem, Darmstadt, Germany) in PBS, and the secondary antibody/16 μM Hoechst staining solution Blocking/Permeabilization solution was added. Secondary antibodies were diluted 1:400 (Alexa Fluor 555 donkey anti-goat, Alexa Fluor 647 donkey anti-mouse, Invitrogen, Karlsruhe, Germany). After an incubation of 1 h, followed by two additional washing steps with 0.05% Tween 20, cells were washed with PBS and finally PBS was added and cells were measured.
Image acquisition was performed on the ArrayScan VTI HCS Reader (Cellomics, Pittsburgh, USA) using a 20× objective. To detect enough cells, 50 images starting at the middle of each well were gathered.
• Channel 1: selected cell count per valid field • Channel 2: CMFDA cytoplasm average intensity • Channel 3: p-Chk1 (Ser345) nucleus average intensity • Channel 4: p-ATM (Ser1981) nucleus average intensity

[1] = HepG2 cells, 48 h, CMFDA cytoplasm average intensity, with rat liver S9 (+S9)
[2] = HepG2 cells, 48 h, CMFDA cytoplasm average intensity, without metabolic activation (−S9)
[3] = HepG2 cells, 48 h, selected cell count per valid field, with rat liver S9 (+S9)
[4] = HepG2 cells, 48 h, selected cell count per valid field, without metabolic activation (−S9)

| SMILES | CMFDA +S9 highest conc. <50% cytotox. over control (human, 48 h) [µM] | CMFDA −S9 highest conc. <50% cytotox. over control (human, 48 h) [µM] | SCC +S9 highest conc. <50% cytotox. over control (human, 48 h) [µM] | SCC −S9 highest conc. <50% cytotox. over control (human, 48 h) [µM] | also measured |
| --- | --- | --- | --- | --- | --- |
| Oc1cccc(O)c1 [1,3-Dihydroxybenzene (resorcinol), 1,3-Dihydroxybenzene] | 500 | 1000 | 1000 | 1000 |  |
| CC(=O)Nc1ccc2c(c1)Cc1ccccc1-2 [2-Acetylaminofluorene] |  |  |  |  | CMFDA +S9 highest conc. <50% cytotox. over control [1]: 1000 µM; CMFDA −S9 highest conc. <50% cytotox. over control [2]: 1000 µM; SCC +S9 highest conc. <50% cytotox. over control [3]: 1000 µM; SCC −S9 highest conc. <50% cytotox. over control [4]: 1000 µM |
| CCCC(O)C(CC)CO (stereo not drawn) [2-Ethyl-1,3-hexanediol] | 1000 | 1000 | 1000 | 1000 |  |
| Cc1c2ccccc2c(C)c2c1ccc1ccccc12 [7,12-Dimethylbenz[a]anthracene] |  |  |  |  | CMFDA +S9 highest conc. <50% cytotox. over control (human): 1000 µM; CMFDA −S9 highest conc. <50% cytotox. over control (human): 250 µM; SCC +S9 highest conc. <50% cytotox. over control (human): 500 µM; SCC −S9 highest conc. <50% cytotox. over control (human): 125 µM |
| C[N+](C)(C)CCCl.[Cl-] [(2-chloroethyl)trimethyl-ammonium chloride] |  |  |  |  | CMFDA +S9 highest conc. <50% cytotox. over control (human): 1000 µM; CMFDA −S9 highest conc. <50% cytotox. over control (human): 1000 µM; SCC +S9 highest conc. <50% cytotox. over control (human): 1000 µM; SCC −S9 highest conc. <50% cytotox. over control (human): 1000 µM |
| Nc1nc[nH]n1 [Amitrole] | 1000 | 1000 | 1000 | 1000 |  |
| CC1(C)S[C@@H]2[C@H](NC(=O)[C@H](N)c3ccccc3)C(=O)N2[C@H]1C(=O)O [Ampicillin trihydrate] | 1000 | 1000 | 1000 | 1000 |  |
| c1ccc2c(c1)cc1ccc3cccc4ccc2c1c34 [Benzo[a]pyrene] |  |  |  |  | CMFDA +S9 highest conc. <50% cytotox. over control (human): 125 µM; CMFDA −S9 highest conc. <50% cytotox. over control (human): 125 µM; SCC +S9 highest conc. <50% cytotox. over control (human): 125 µM; SCC −S9 highest conc. <50% cytotox. over control (human): 3.91 µM |
| OCc1ccccc1 [Benzyl alcohol] | 1000 | 1000 | 1000 | 1000 |  |
| O=C(N[C@H](CO)[C@H](O)c1ccc([N+](=O)[O-])cc1)C(Cl)Cl [Chloramphenicol] | 1000 | 1000 | 1000 | 1000 |  |
| COc1cc(/C=C/C(=O)CC(=O)/C=C/c2ccc(O)c(OC)c2)ccc1O [Curcumin] | 125 | 31.25 | 125 | 31.25 |  |
| O=C1CCCCC1 [Cyclohexanone] | 1000 | 1000 | 1000 | 1000 |  |
| O=P1(N(CCCl)CCCl)NCCCO1 (stereo not drawn) [Cyclophosphamide] |  |  |  |  | CMFDA +S9 highest conc. <50% cytotox. over control (human): 62.5 µM; CMFDA −S9 highest conc. <50% cytotox. over control (human): 1000 µM; SCC +S9 highest conc. <50% cytotox. over control (human): 1000 µM; SCC −S9 highest conc. <50% cytotox. over control (human): 1000 µM |
| CC(C)[C@@H]1CC[C@@H](C)C[C@H]1O [D,L-menthol] |  |  |  |  | CMFDA +S9 highest conc. <50% cytotox. over control: 1000 µM; CMFDA −S9 highest conc. <50% cytotox. over control: 1000 µM; SCC +S9 highest conc. <50% cytotox. over control: 1000 µM; SCC −S9 highest conc. <50% cytotox. over control: 1000 µM |
| OC[C@@H](O)[C@@H](O)[C@H](O)[C@H](O)CO [D-mannitol] | 1000 | 1000 | 1000 | 1000 |  |
| CCCCC(CC)COC(=O)c1ccccc1C(=O)OCC(CC)CCCC (stereo not drawn) [Di-(2-ethylhexyl)phthalate] |  |  |  |  | CMFDA +S9 highest conc. <50% cytotox. over control (human): 1000 µM; CMFDA −S9 highest conc. <50% cytotox. over control (human): 1000 µM; SCC +S9 highest conc. <50% cytotox. over control (human): 1000 µM; SCC −S9 highest conc. <50% cytotox. over control (human): 1000 µM |
| OCCNCCO [Diethanolamine] | 1000 | 1000 | 1000 | 1000 |  |
| CC[C@H]1OC(=O)[C@H](C)[C@@H](O[C@H]2C[C@@](C)(OC)[C@@H](O)[C@H](C)O2)[C@H](C)[C@@H](O[C@@H]2O[C@H](C)C[C@H](N(C)C)[C@H]2O)[C@](C)(O)C[C@@H](C)C(=O)[C@H](C)[C@@H](O)[C@]1(C)O [Erythromycin stearate] |  | 62.5 |  | 31.25 |  |
| CCc1cc(C(N)=S)ccn1 [Ethionamide] | 1000 | 1000 | 1000 | 1000 |  |
| C=CC(=O)OCC [Ethyl acrylate] |  |  |  |  | CMFDA +S9 highest conc. <50% cytotox. over control (human): 1000 µM; CMFDA −S9 highest conc. <50% cytotox. over control (human): 1000 µM; SCC +S9 highest conc. <50% cytotox. over control (human): 1000 µM; SCC −S9 highest conc. <50% cytotox. over control (human): 1000 µM |
| COc1cc([C@@H]2c3cc4c(cc3[C@@H](O[C@@H]3O[C@@H]5CO[C@@H](C)O[C@H]5[C@H](O)[C@H]3O)[C@H]3COC(=O)[C@H]23)OCO4)cc(OC)c1O [Etoposide] | 1000 | 1000 | 1000 |  |  |
| CN(C)C(=O)Nc1cccc(C(F)(F)F)c1 [Fluometron] | 1000 | 1000 | 1000 | 500 |  |
| ClC(Cl)(Cl)C(Cl)(Cl)Cl [Hexachloroethane] |  |  |  |  | CMFDA +S9 highest conc. <50% cytotox. over control [1]: 1000 µM; CMFDA −S9 highest conc. <50% cytotox. over control [2]: 1000 µM; SCC +S9 highest conc. <50% cytotox. over control [3]: 1000 µM; SCC −S9 highest conc. <50% cytotox. over control [4]: 1000 µM |
| Oc1ccc(O)cc1 [Hydroquinone] | 1000 | 250 | 1000 | 250 |  |
| Cn1c(N)nc2c3cccnc3ccc21 [IQ, 2-Amino-3methylimidazo[4,5-f]quinoline] |  |  |  |  | CMFDA +S9 highest conc. <50% cytotox. over control [1]: 125 µM; CMFDA −S9 highest conc. <50% cytotox. over control [2]: 1000 µM; SCC +S9 highest conc. <50% cytotox. over control [3]: 125 µM; SCC −S9 highest conc. <50% cytotox. over control [4]: 1000 µM |
| CC(C)C=O [Isobutyraldehyde] | 1000 | 1000 | 1000 | 1000 |  |
| Nc1nc(N)nc(N)n1 [Melamine] |  |  |  |  | CMFDA +S9 highest conc. <50% cytotox. over control [1]: 1000 µM; CMFDA −S9 highest conc. <50% cytotox. over control [2]: 1000 µM; SCC +S9 highest conc. <50% cytotox. over control [3]: 1000 µM; SCC −S9 highest conc. <50% cytotox. over control [4]: 1000 µM |
